Experimental data taken from US20240173389A1, “Compositions and Methods For Reducing Immune Intolerance” (LAPIX THERAPEUTICS, INC., priority 2021, published 2024).
“Also recorded” adds a separate entry of the source.

Legend:
[1] = test system: RAW264.7 mouse monocyte macrophage cells; assay: SAR screen in RAW 264.7 cells with FVIII antigen, TNF-α ELISA (Example 5); format: cell-based; conditions: free compounds dosed in mM range, FVIII antigen
Excerpt: (§1) RAW264.7 mouse monocyte macrophage cells were exposed to an increasing concentration of selected compounds in the presence of human plasma-derived FVIII as a model antigen protein. TNF-α and TGF-β production were monitored.
All molecules were formulated in RPMI media in aseptic conditions. The pH was adjusted to approximately 7.5 before dosing cells. 1,2-dimyristoyl-sn-glycero-3-phosphocholine (DM PC):PS liposomes were made at 70:30 molar ratio to make “PS” liposomes.
(§2) RAW 264.7 cells were prepared, cultured, and dosed. Cells were seeded at 4×10^5 cells/well. OPLS, OPLT and L-homocysteic acid (LHA) were dosed at 100, 85, 70, 60, 50, 30, 10, 3, 1, 0.3, 0.1, 0.03 and 0.01 mM, or at 100, 85, 70, 60, 50, 30, 10, 3 and 1 mM, as indicated. O-Benzyl-L-serine (OBLS), S-phenyl-L-cysteine (SPLC), S-benzyl-L-cysteine (SBLC) and OBLT were dosed at 100, 85, 70, 60, 50, 30, 10, 3, 1, 0.3, 0.1, 0.03, 0.01, 0.003 and 0.001 μM. Finally, 100 μl of 40 μg/ml of FVIII as a sample antigen was added to each cell. LPS and free protein were used as positive and baseline controls, respectively. TNF-α and TGF-β ELISA were conducted as per the manufacturer's instructions (R & D Systems).

TLR4 = assay: TNF-α production by splenocytes in response to TLR4 ligand LPS; format: cell-based, C57BL/6 mice; conditions: for TNF-α mean: 48 hours, OPLT 1.85 μg/ml, dexamethasone 100 μg/ml, rapamycin 625 μg/ml
Method: (§3) OPLT was dissolved in sterile PBS at 100 μM, and pH was adjusted to approximately 7.5. Splenocytes from naïve C57BL/6 mice were stained with CFSE, prepared, cultured, and dosed. Cells were seeded at 2×10^5 cells/well.
(§4) To evaluate the effects of OPLT on cytokine production by splenocytes in response to different TLR ligands, splenocytes were incubated with one of the following TLR ligands in triplicate: PGN, LPS, ODN CPG, dsRNA, or ssRNA, as per group assignment. Cells were then treated as follows: • Control: No treatment; • OPLT: Cells were dosed with 1.85 μg/ml; • Dexamethasone: Cells were dosed with 100 μg/ml; • Rapamycin: Cells were dosed with 625 μg/ml. Cells were incubated for 48 hours before collecting the supernatant for TNF-α analysis.
(§5) The supernatant was collected for TNF-α analysis by ELISA.

Splenocytes = assay: Splenocyte culture with anti-CD3/anti-CD28 without antigen, Foxp3+/CD4+ by flow cytometry (Example 4); format: cell-based; conditions: 100 μM, three days, anti-CD3/anti-CD28, absence of any antigen
Method: Splenocytes were cultured for three days in presence of anti-CD3/anti-CD28 in presence of 100 μM PS or 100 μM OPLT in absence of any antigen.

TLR2 = assay: TNF-α production by splenocytes in response to TLR2 ligand PGN; format: cell-based, C57BL/6 mice; conditions: for TNF-α mean: 48 hours, OPLT 1.85 μg/ml, dexamethasone 100 μg/ml, rapamycin 625 μg/ml
Method: as §3, §4, §5

TLR9 = assay: TNF-α production by splenocytes in response to TLR9 ligand ODN CpG; format: cell-based, C57BL/6 mice; conditions: for TNF-α mean: 48 hours, OPLT 1.85 μg/ml, dexamethasone 100 μg/ml, rapamycin 625 μg/ml
Method: as §3, §4, §5

[2] = test system: RAW264.7 mouse monocyte macrophage cells; assay: SAR screen in RAW 264.7 cells with FVIII antigen, TGF-β ELISA (Example 5); format: cell-based; conditions: free compounds dosed in mM range
Excerpt: as §1
All molecules were formulated in RPMI media in aseptic conditions. The pH was adjusted to approximately 7.5 before dosing cells. 1,2-dimyristoyl-sn-glycero-3-phosphocholine (DM PC):PS liposomes were made at 70:30 molar ratio to make “PS” liposomes. The remaining liposomes were made by hydrating a DMPC lipid layer in PBS buffer containing a test compound to give a final molar ratio of 70:30 of DMPC:test compound.
as §2

FoxP3+/CD4+ T-cells = assay: Splenocytes cultured 3 days with anti-CD3/anti-CD28 with or without OPLT, percent FoxP3+/CD4+ T-cells (Example 6); format: cell-based, C57BL/6 mice; conditions: 72-hour incubation
Method: as §3
To evaluate the effects of OPLT on FoxP3+/CD4+ T-cells, splenocytes were cultured for 3 days in presence of anti-CD3/anti-CD28 with and without 1.85 μg/ml (10 μM) OPLT. Cells were harvested at the end of a 72-hour incubation period and percent FoxP3+/CD4+ T-cells was determined by flow cytometry.

TLR7 = assay: TNF-α production by splenocytes in response to TLR7 ligand ssPolyU; format: cell-based, C57BL/6 mice; conditions: for TNF-α mean: 48 hours, OPLT 1.85 μg/ml, dexamethasone 100 μg/ml, rapamycin 625 μg/ml
Method: as §3, §4, §5

In the case of `N[C@@H](Cc1ccc(OP(=O)(O)O)cc1)C(=O)O` [OPLT, O-phospho-L-tyrosine], the “TNF-α production (suppression) versus OPLS” value [1] is reported as “suppressed TNF-α production at a lower dose than OPLS; also recorded: more potent inhibitors of TNF-α”, the TNF-α mean (TLR4; LPS 0 ng/ml) is reported as 0 pg/mL and the TNF-α mean (TLR4; LPS 1 ng/ml, CTL 143) is reported as 116 pg/mL. For the same compound, the TNF-α mean (TLR4; LPS 10 ng/ml, CTL 840) was 676 pg/mL, the TNF-α mean (TLR4; LPS 100 ng/ml, CTL 1091) was 838 pg/mL and the “effect on splenocytes' TNF-α response to the TLR4 ligand LPS (in words)” value (TLR4; compared to control at all doses, 10 μM OPLT) was “did not abrogate splenocytes' response to LPS”. For the same compound, the “increase in Foxp3+/CD4+ compared to control” value (Splenocytes) was 118%, the TNF-α mean (TLR2; PGN 0 ng/ml) was 0 pg/mL and the TNF-α mean (TLR2; PGN 1 ng/ml, CTL 730) was 445 pg/mL. The TNF-α mean (TLR2; PGN 10 ng/ml, CTL 725) was 613 pg/mL, the TNF-α mean (TLR2; PGN 100 ng/ml, CTL 834) was 827 pg/mL and the “effect on splenocytes' TNF-α response to the TLR2 ligand PGN (in words)” value (TLR2; PGN 1, 10, 100 ng/ml, compared to control) was “statistically significant reduction in TNF-α in the low PGN dose group (1 ng/ml), but not the mid or high PGN dose group”. The TNF-α mean (TLR9; ODN CpG 0 ng/ml) was 0 pg/mL, the TNF-α mean (TLR9; ODN CpG 1 ng/ml, CTL 0) was 0 pg/mL and the TNF-α mean (TLR9; ODN CpG 10 ng/ml, CTL 338) was 0 pg/mL. For the same compound, the TNF-α mean (TLR9; ODN CpG 100 ng/ml, CTL 1220) was 1178 pg/mL, the “effect on splenocytes' TNF-α response to the TLR9 ligand ODN CpG (in words)” value (TLR9; high dose of ODN CpG) was “did not” and the “effect on splenocytes' TNF-α response to the TLR9 ligand ODN CpG (in words)” value (TLR9; mid-dose of ODN CpG, statistically significant) was “reduced splenocytes' response to mid-dose of the TLR9 ligand ODN CpG”. The “TGF-β production versus OPLS” value [2] was “mimicked that of OPLS; also recorded: more potent inducers of TGF-β”, the “increase in FoxP3+/CD4+ T-cells versus untreated cells” value (FoxP3+/CD4+ T-cells; 10 μM (1.85 μg/ml) OPLT, anti-CD3/anti-CD28) was 118% and the “percent FoxP3+/CD4+ T-cells” value (FoxP3+/CD4+ T-cells; 10 μM OPLT, untreated 12.7%) was 27.7%. It also gave a TNF-α mean (TLR7; Poly U 0 ng/ml) of 0 pg/mL, a TNF-α mean (TLR7; Poly U 1 ng/ml, CTL 44) of 36 pg/mL and a TNF-α mean (TLR7; Poly U 10 ng/ml, CTL 51) of 40 pg/mL. For the same compound, the TNF-α mean (TLR7; Poly U 100 ng/ml, CTL 229) was 43 pg/mL and the “effect on splenocytes' TNF-α response to the TLR7 ligand Poly U (in words)” value (TLR7; high dose of Poly U, statistically significant) was “reduced splenocytes' response to a high dose of the TLR7 ligand Poly U”.
